For experiment [1], the target named is MAPK14 (human) (UniProt Q16539). Put plainly: Inhibition of TNF-alpha Production in LPS Stimulated PBMC.
For experiment [2] the target is unchanged. Put plainly: Inhibition of IL-1 Production in LPS Stimulated PBMC.
The target is the same in experiment [3]. The experiment is described as follows: Inhibition of p38 Kinase Activity.
Experiment [4] shares this target. The experiment is described as follows: Inhibition of IL-6 Production in Whole Blood Cells.
Experiment [5] shares this target. The experiment is described as follows: Inhibition of TNF-alpha Production in LPS Stimulated Whole Blood Cells.
The target is the same in experiment [6]. Put plainly: Inhibition of IL-1 Production in LPS Whole Blood Cells.

Structures are written as SMILES.

Chain of MAPK14 (human) (Q16539 whole entry, looked up): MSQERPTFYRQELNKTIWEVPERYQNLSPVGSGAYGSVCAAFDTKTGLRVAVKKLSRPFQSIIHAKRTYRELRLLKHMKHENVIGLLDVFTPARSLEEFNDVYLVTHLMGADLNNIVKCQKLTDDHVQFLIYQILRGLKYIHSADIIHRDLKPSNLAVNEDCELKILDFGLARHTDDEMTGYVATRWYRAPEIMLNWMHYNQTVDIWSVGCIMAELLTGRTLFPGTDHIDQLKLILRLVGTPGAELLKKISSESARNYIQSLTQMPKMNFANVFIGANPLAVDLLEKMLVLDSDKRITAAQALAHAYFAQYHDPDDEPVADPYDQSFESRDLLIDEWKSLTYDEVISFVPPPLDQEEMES

What is called IC50 is the concentration needed to halve the response being measured. High values mean weaker potency in that assay, low ones greater potency in that assay. Regarding `Cc1cc(F)ccc1-c1nc(N(C(N)=O)c2c(F)cccc2F)ccc1CO`, the IC50 was found to be 10 nM in experiment [1]; 27 nM in experiment [2]; 27 nM in experiment [3]; 75 nM in experiment [4]; 90 nM in experiment [5]; 57 nM in experiment [6].

Consider `Cc1cc(F)ccc1-c1nc(N(C(N)=O)c2c(Cl)cccc2Cl)ccc1CO`, for which the IC50 in experiment [1] stood at 50 nM; in experiment [2] it was 20 nM; in experiment [3] it was 2 nM; in experiment [4], 180 nM; in experiment [5], 55 nM; in experiment [6] it was 118 nM.

Consider `Cc1ccccc1-c1nc(N(C(N)=O)c2c(Cl)cccc2Cl)ccc1CO`, for which the IC50 came out at 140 nM in experiment [1]; 21 nM in experiment [2]; 56 nM in experiment [3]; 250 nM in experiment [4]; 64 nM in experiment [5]; 420 nM in experiment [6].

(Values after the Kinase Knowledgebase extract (Sharma et al. 2016).)
